Test systems include K-562 leukemia; SF-295 CNS; HCC-2998 colon; SK-OV-3 ovarian; KM12 colon; OVCAR-5 ovarian; EKVX NSCLC; IGROV1 ovarian; OVCAR-8 ovarian; SF-539 CNS; CCRF-CEM leukemia; SNB-78 CNS; HCT-15 colon; HL-60(TB) leukemia; MALME-3M melanoma; U251 CNS; RXF 393 renal; NCI-H226 lung; MDA-MB-231 breast.
What all share (experiment): NCI tumour cell line growth inhibition, 48 h

Molecules are shown by their SMILES.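 Growth conditions: 96-well plates. Treatment: test compound, 48 hours, 5 concentrations. Analysis: linear interpolation between bracketing concentrations; unreached endpoints set to highest concentration. TGI denotes the concentration required for complete inhibition of growth.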

For `NC1=NC2=c3ccccc3=C(c3cnccn3)C2(c2cnccn2)c2ccccc21` (stereo unspecified), the TGI in the assay with K-562 leukemia, in the assay on SF-295 CNS, in the assay with HCC-2998 colon, in the assay with SK-OV-3 ovarian, in the assay on KM12 colon and in the assay with OVCAR-5 ovarian was greater than 100 µM throughout. The TGI in the assay on EKVX NSCLC, in the assay on IGROV1 ovarian, in the assay on OVCAR-8 ovarian, in the assay with SF-539 CNS, with CCRF-CEM leukemia and in the assay with SNB-78 CNS was greater than 100 µM each time. Further, the TGI in the assay on HCT-15 colon, in the assay on HL-60(TB) leukemia, with MALME-3M melanoma, with U251 CNS, in the assay with RXF 393 renal and with NCI-H226 lung was greater than 100 µM each time.

On to `COC(=O)C(=O)C(C(=O)C(=O)Nc1cccc(C(C)=O)c1)c1nc2ccc([N+](=O)[O-])cc2[nH]c1=O` (stereo unspecified), for which the TGI with K-562 leukemia, with SF-295 CNS, with HCC-2998 colon, in the assay with SK-OV-3 ovarian, in the assay on KM12 colon and with OVCAR-5 ovarian was greater than 100 µM in each case. In addition, the TGI with EKVX NSCLC, in the assay with IGROV1 ovarian, in the assay on OVCAR-8 ovarian, in the assay on SF-539 CNS, in the assay with CCRF-CEM leukemia and in the assay on SNB-78 CNS was greater than 100 µM in each case. Further, the TGI in the assay with HCT-15 colon, in the assay on HL-60(TB) leukemia, in the assay on MALME-3M melanoma, in the assay on U251 CNS, with RXF 393 renal and in the assay with NCI-H226 lung was greater than 100 µM in each case.

Take `CC1=NN(C(=O)c2ccccc2O)C(=O)/C1=C/c1cccc(O)c1`: the TGI in the assay on K-562 leukemia, in the assay on SF-295 CNS, in the assay on HCC-2998 colon, with SK-OV-3 ovarian, with KM12 colon and in the assay on OVCAR-5 ovarian was greater than 100 µM in each case. Further, the TGI in the assay on MDA-MB-231 breast is greater than 100 µM; in the assay on EKVX NSCLC, greater than 100 µM; with OVCAR-8 ovarian, greater than 100 µM; with SF-539 CNS it was 4.29 µM; with CCRF-CEM leukemia it was greater than 100 µM; in the assay on SNB-78 CNS, greater than 100 µM. Moreover, the TGI in the assay on HCT-15 colon is greater than 100 µM; with HL-60(TB) leukemia, greater than 100 µM; in the assay with MALME-3M melanoma, greater than 100 µM; with U251 CNS it was greater than 100 µM; with NCI-H226 lung, 83.2 µM.

In the case of `COC(=O)CCC(NC(=S)N/N=C/c1ccccn1)C(=O)OC` (stereo unspecified), the TGI in the assay on K-562 leukemia, in the assay with SF-295 CNS, with HCC-2998 colon, with SK-OV-3 ovarian, in the assay on KM12 colon and in the assay on OVCAR-5 ovarian was greater than 100 µM in each case. Further, the TGI in the assay on EKVX NSCLC, with IGROV1 ovarian, with OVCAR-8 ovarian, with SF-539 CNS, in the assay on CCRF-CEM leukemia and in the assay on SNB-78 CNS was greater than 100 µM each time. Further, the TGI in the assay on HCT-15 colon, in the assay with HL-60(TB) leukemia, in the assay with MALME-3M melanoma, in the assay on U251 CNS, in the assay with RXF 393 renal and in the assay with NCI-H226 lung was greater than 100 µM throughout.

As to `Cc1cc([N+](=O)[O-])ccc1Sc1c2ccccc2nc2cc(Cl)ccc12`, the TGI with K-562 leukemia is greater than 100 µM; in the assay with SF-295 CNS it was greater than 100 µM; with HCC-2998 colon it was greater than 100 µM; in the assay with SK-OV-3 ovarian it was greater than 100 µM; in the assay on KM12 colon, 50.4 µM; in the assay with OVCAR-5 ovarian, greater than 100 µM. The TGI in the assay with EKVX NSCLC is greater than 100 µM; with IGROV1 ovarian, greater than 100 µM; in the assay on OVCAR-8 ovarian it was 57.3 µM; in the assay on SF-539 CNS it was 57.6 µM; with CCRF-CEM leukemia, greater than 100 µM; in the assay with SNB-78 CNS, greater than 100 µM. In addition, the TGI is greater than 100 µM with HCT-15 colon; 51 µM in the assay on HL-60(TB) leukemia; greater than 100 µM in the assay with MALME-3M melanoma; 80.7 µM with U251 CNS; greater than 100 µM with RXF 393 renal; greater than 100 µM in the assay with NCI-H226 lung.

As for `CC(=O)OC1CC2CCN3C(=O)c4cc5c(cc4[C@H](C1OC(C)=O)C23)OCO5` (stereo partly specified), the TGI with K-562 leukemia, with SF-295 CNS, with HCC-2998 colon, in the assay with SK-OV-3 ovarian, in the assay with KM12 colon and with EKVX NSCLC was greater than 100 µM throughout. The TGI in the assay with IGROV1 ovarian, in the assay on OVCAR-8 ovarian, in the assay with SF-539 CNS, in the assay with CCRF-CEM leukemia, in the assay on SNB-78 CNS and in the assay with HCT-15 colon was greater than 100 µM in each case. Further, the TGI with HL-60(TB) leukemia, in the assay with MALME-3M melanoma, in the assay with U251 CNS, with RXF 393 renal and in the assay on NCI-H226 lung was greater than 100 µM each time.
